As usually defined, the IC50 is the concentration at which inhibition is half-maximal. Higher therefore signals weaker potency in that assay.

One assay concerns SCs. Briefly: Cell viability assay (cell counting kit-8) of senescent and non-senescent SCs treated with inhibitors. Format: cell-based, mouse. The method, then: Figure 3 25HC is a senolytic in multiple muscle cell types (A) Targets, compounds, and mechanisms. (B) Timeline of cell viability assay with inhibitors. Cells were pre-cultured for 24 h, treated with Doxo for 24 h, and then treated with inhibitors. Cell viability was analyzed from day 0–7. (C–E) Effects of inhibitors on viability of FAPs, SCs, and HSMMs. Cells were treated with inhibitors at the indicated concentrations. Cell viability was analyzed on day 3 (HSMMs) or 5 (FAPs and SCs). Blue and red dots indicate non-senescent (NS) and senescent (SEN), respectively. The average value at 0 μM for each group was set at 100% cell viability. p values versus NS were obtained using unpaired two-tailed Student’s t test. ∗p < 0.05, ∗∗p < 0.01, and ∗∗∗p < 0.001.
Figure 4 EC50 fitted curves (triplicates) of inhibitor effects at 3 and 7 days in FAPS and SCs EC50 was defined as the concentration of inhibitors that provokes a response halfway between baseline and maximum senolytic activity. EC50 values were determined by four- parameter logistic modeling using GraphPad Prism 8.0.
Hind limb muscles were digested in DMEM containing 0.5% (w/v) collagenase type II (Worthington) for 90 min at 37 °C with trituration and passed through a 40-μm nylon mesh. Erythrocytes were eliminated by treating with BD Pharm Lyse (BD Biosciences). Cells were resuspended in a washing buffer of PBS with 2% FBS and stained with antibodies for 30 min at 4 °C as described ([Kamizaki et al., 2017]). FAPs and SCs were isolated from the suspension by FACS (Aria II, BD Biosciences) using anti-CD31, CD45, Sca-1, PDGFR and VCAM1 antibodies. FAPs were identified as Sca1/PDGFR-positive and CD31-, CD45- and VCAM1-negative cells ([Uezumi et al., 2010]). SCs were identified as VCAM1-positive and CD31-, CD45-, Sca-1 and PDGFR-negative cells ([Liu et al., 2015]).
(§1) All experiments were performed in incubators at 37 °C, 3% O2 and 5% CO2. Senescence was induced by treatment with either Doxo (250 nM for 24 h) ([Demaria et al., 2017]) or X-irradiation (10 Gy) ([Limbad et al., 2020]). For cell culture studies using 25HC, it was used at the indicated concentrations in the media.
FAPs and SCs were cultured on Matrigel-coated dishes (BD Biosciences) in growth medium (GM) consisting of DMEM plus 10% FBS, 1% penicillin-streptomycin and 10% MyoCult (STEMCELL Technologies) for 7 days. Human myogenic cell HSMMs (Lonza) were maintained according to the manufacturer’s instructions with SkGM-2 medium (Lonza).
Cell viability was assessed using a cell counting kit-8 from Dojindo Molecular Technologies, Inc (Cat CK04-20). Cells were incubated with culture media + 10% kit cell viability reagent, 150 μL/well in 96-well plates for 2 h. The supernatant was transferred to a new 96-well plate and absorbance read at 450 nm as recommended in the product datasheet.
In general terms: Tetrazolium assays rely on reduction of a dye to a coloured formazan, in cell work by metabolically active cells.

For assay [1], the system named is human lung fibroblasts (IMR-90). Briefly: Cell viability assay of NS and SEN IMR-90 cells treated with CRYAB and HMOX1 inhibitors. Format: cell-based. The note with it: 250 nM Doxo-induced senescence; viability after 72 h; 25HC at 10 or 50 μM. The method, then:
The average value of DMSO was set at 1. (B and D) Effects of CRYAB and HMOX1 inhibitors on DMSO-treated NS or Doxo-treated SEN cells; (B) mDFs, (D) IMR-90s. Cells were treated with the inhibitors at the indicated concentrations. Cell viability was measured after 72 h. (C) IMR-90 qRT-PCR. For qPCR: mean +/- SE, n =4, ∗p< 0.05, ∗∗p< 0.01, ∗∗∗p<0.001, ∗∗∗∗p<0.0001 by Dunnett’s multiple comparisons test vs DMSO. For cell viability assays: mean +/- SE, n =3, ∗∗p< 0.01, ∗∗∗p<0.001, ∗∗∗∗p<0.0001 vs 0 mM by student’s t test.
as §1
IMR-90 cells were cultured in DMEM with 10% FBS. […]
Cell viability was assessed using a cell counting kit-8 from Dojindo Molecular Technologies, Inc (Cat CK04-20). […] The supernatant was transferred to a new 96-well plate and absorbance read at 450 nm as recommended in the product datasheet.

For the next assay, the system named is 15-d-PGJ2. The experiment in a line: 15-d-PGJ2 ELISA in urine of aged mice given 25HC. Format: in vivo, mouse. The note with it: 24–26-month-old mice, both genders; urine 12 h after the first treatment with 25HC 50 mg/kg i.p., relative to controls. As for the experimental part: Figure 9 25HC is an in vivo senolytic in tissues of aged mice (A) Timeline of 25HC treatment in aged mice. Young (5 months old) and old (24–26 months old) mice were treated with 25HC or vehicle for 5 consecutive days. (B) Mass of gastrocnemius muscles in male and female mice. Muscle weight was normalized to body weight. (C) Cdkn1a and Cryab mRNA levels in gastrocnemius (Gastroc) and soleus (Sol) muscles. RNA was collected at 7–9 d after the first treatment with 25HC or vehicle. mRNA levels of the indicated genes were quantified by qRT-PCR, and normalized to those of actin mRNA. The average value of young-vehicle was set at 1. (D) 15-d-PGJ2 analysis in urine. […]
Two groups of male and female C57BL/6J mice were used. […] Senescence markers and CRYAB were analyzed using mRNA from gastrocnemius (Gastroc), soleus (So), tibialis anterior (TA), visceral fat (VF), kidney (Ki), liver (Li), lung (Lu), heart (He), and skin (Sk) samples using qRT-PCR (Figures S14, S15, S16, S17, and S18).
Urine was collected at 12 or 24 h after the first treatment with 25HC or vehicle and diluted 10-fold with assay buffer. The amount of 15-d-PGJ2 was measured using a 15-deoxy-Δ^12,14-PGJ2 ELISA kit according to manufactures’ protocol (Enzo Life Sciences).

The next assay has as its system SARS-CoV-2. Details: method as in Wang et al., 2020; Zang et al., 2020; Zu et al., 2020. The note with it: by depleting membrane cholesterol, ref Wang et al., 2020, Zang et al., Zu et al.; cited from earlier work.

On to `C[C@H](CCCC(C)(C)O)[C@H]1CC[C@H]2[C@@H]3CC=C4C[C@@H](O)CC[C@]4(C)[C@H]3CC[C@]12C` [25HC, 25-hydroxycholesterol], for which, in the assay with SCs (Doxo-induced senescence, viability on day 5), the “viability of senescent versus non-senescent SCs” value was “decreased the viability of senescent SCs”. In the assay with SCs (Mus musculus, 168 h, SCs, 7 days in culture), this compound returned an IC50 of 3.7 µM. Besides, the “senolysis in IMR-90 cells” value in assay [1] is “induced significant senolysis”. The “15-d-PGJ2 level in urine” value in the assay on 15-d-PGJ2 is given as “greater”. Moreover, in the assay on SARS-CoV-2, the SARS-CoV-2 replication result was “inhibits SARS-CoV-2 replication”.

The values above are taken from paper PMC8851282, “Senolysis induced by 25-hydroxycholesterol targets CRYAB in multiple cell types” (iScience, 2022).
